From PMC7926352, “Synthesis, Characterization and In Vitro Evaluation of Novel 5-Ene-thiazolo[3,2-b][1,2,4]triazole-6(5H)-ones as Possible Anticancer Agents” (Molecules, 2021)
Like-named read-outs stand apart in the source and are kept apart here.

Experiments:
HCC-2998 [1] = system: HCC-2998
NCI-H226 = assay type: cell-based; conditions: NCI-H226, NSCLC
MDA-MB-231/ATCC [2] = system: MDA-MB-231/ATCC
SNB-75 [3] = system: SNB-75
A549/ATCC = assay type: cell-based; conditions: NSCLC; for CC50: read-out: LC50 (the source's name)
[4] = system: human embryonic kidney (HEK 293) cell lines; test: MTT cytotoxicity assay; assay type: cell-based; conditions: HEK 293, MTT, 24 h
Method: Compounds 2h and 2i were also evaluated in vitro for their cytotoxic potential against human embryonic kidney (HEK 293) cell lines using the MTT assay.
The cytotoxicity of compounds 2h and 2i was analyzed in vitro by the MTT colorimetric assay on human embryonic kidney cell lines (HEK 293). HEK cell lines were cultured in DMEM supplemented with 10% fetal calf serum and 1% antibiotic-antimycotic mixture culture plates at 37 °C and 5% CO2-humidified incubator. Cells were seeded at a density of 1 × 10^5 cells/well in 96-well plate for 24 h; then, cells were washed and incubated in fresh medium. Compounds 2h and 2i were added at a concentration of 1, 5, 10, 25, and 50 μg/mL to triplicate wells and kept for 24 h, after which cells were washed three times with PBS. After washing, 20 μL of MTT solution (5 mg/mL stock solution) were added to each well, and cells were then incubated for an additional 4 h. The unreacted MTT dye and medium were aspirated off, and 100 μL of DMSO was added to each well to ensure solubilization of formazan crystals. The contents of the plates were mixed for 15 min to achieve complete solubilization of the formazan crystals, and the measurement of optical density was carried out at 570 nm with a micro plate spectrophotometer (MRX Microplate Reader, Dynatech Laboratories Inc., Chantilly, VA, USA) at 570 nm.

[5] = system: Prostate Cancer cell lines
NCI-H460 [6] = system: NCI-H460
[7] = system: NSCLC (Non-small Cell Lung Cancer) cell lines
NCI-H460 [8] = system: NCI-H460; remark: listed apart in the source
SNB-75 [9] = system: SNB-75; remark: listed apart in the source
HCC-2998 [10] = system: HCC-2998; remark: listed apart in the source
[11] = system: panel of approximately sixty human tumor cell lines; test: NCI-60 human tumor cell lines screen (SRB), full panel; assay type: cell-based
MDA-MB-231/ATCC [12] = system: MDA-MB-231/ATCC; remark: listed apart in the source
[13] = Homo sapiens, read-out: GI50, panel MG_MID
[14] = Homo sapiens, read-out: GI50, values range inside panel
[15] = Homo sapiens, read-out: LC50, panel MG_MID
[16] = Homo sapiens, read-out: LC50, values range inside panel

Compound: O=C(COc1ccc(Cl)cc1/C=c1\sc2ncnn2c1=O)Nc1ccc(Cl)cc1 [Compound 2h, (Z)-2-(4-Chloro-2-((6-oxothiazolo[3,2-b][1,2,4]triazol-5(6H)-ylidene)methyl)phenoxy)-N-(4-chlorophenyl)acetamide]
- TGI (HCC-2998 [1]; HCC-2998, Colon cancer): 18.62 µM
- GI50 (HCC-2998 [1]; Homo sapiens, HCC 2998): 7.07 µM
- CC50 (HCC-2998 [1]; Homo sapiens, HCC 2998, read-out: LC50): 43.6 µM
- GI50 (NCI-H226; Homo sapiens): 3.09 µM
- LC50 (50% lethal concentration) (NCI-H226; Homo sapiens): 44.7 µM
- TGI (NCI-H226): 17.37 µM
- GI50 (MDA-MB-231/ATCC [2]; Homo sapiens, MDA-MB-231): < 0.01 µM
- CC50 (MDA-MB-231/ATCC [2]; Homo sapiens, MDA-MB-231, read-out: LC50): 75.9 µM
- TGI (MDA-MB-231/ATCC [2]; MDA-MB-231/ATCC, Breast Cancer): 11.48 µM
- GI50 (SNB-75 [3]; Homo sapiens, SNB-75): 3.38 µM
- CC50 (SNB-75 [3]; Homo sapiens, SNB-75, read-out: LC50): 87.1 µM
- TGI (SNB-75 [3]; SNB-75, CNS Cancer): 15.48 µM
- GI50 (SN12C; Homo sapiens): 1.62 µM
- CC50 (SN12C; Homo sapiens, read-out: LC50): 41.7 µM
- TGI (SN12C; Renal Cancer): 12.88 µM
- TGI (HS 578T; HS 578T, Breast Cancer): 5.24 µM
- GI50 (HS 578T; Homo sapiens, Hs-578T): 2.04 µM
- CC50 (HS 578T; Homo sapiens, Hs-578T, read-out: LC50): 33.9 µM
- GI50 (A549/ATCC; Homo sapiens): 15.5 µM
- CC50 (A549/ATCC; Homo sapiens): 60.2 µM
- TGI (A549/ATCC): 30.90 µM
- TGI (NCI/ADR-RES; Breast Cancer): 41.68 µM
- GI50 (NCI/ADR-RES; Homo sapiens): 15.5 µM
- CC50 (NCI/ADR-RES; Homo sapiens, read-out: LC50): > 100 µM
- TGI (DU-145; DU-145, Prostate Cancer): 4.46 µM
- GI50 (DU-145; Homo sapiens, DU-145): 1.54 µM
- CC50 (DU-145; Homo sapiens, DU-145, read-out: LC50): 15.8 µM
- TGI, panel MG_MID (CNS Cancer cell lines; CNS Cancer subpanel): 10.76 µM
- TGI, values range inside panel (CNS Cancer cell lines; CNS Cancer subpanel): 4.46 to 15.48 µM
- GI50 (CNS Cancer cell lines; [13]): 2.87 µM
- GI50 (CNS Cancer cell lines; [14]): 1.77 to 4.07 µM
- CC50 (CNS Cancer cell lines; [15]): 38.6 µM
- CC50 (CNS Cancer cell lines; [16]): 12.6 to 87.1 µM
- IC50 ([4]; Homo sapiens, HEK293): 29 µM
- GI50 (UACC-257; Homo sapiens, UACC-257): 3.38 µM
- CC50 (UACC-257; Homo sapiens, UACC-257, read-out: LC50): 38.9 µM
- TGI (UACC-257; UACC-257, Melanoma): 15.13 µM
- GI50 (SW-620; Homo sapiens, SW-620): 4.26 µM
- CC50 (SW-620; Homo sapiens, SW-620, read-out: LC50): 38 µM
- TGI (SW-620; SW-620, Colon cancer): 14.79 µM
- GI50 [5, 13]: 2.67 µM
- GI50 [5, 14]: 1.54 to 3.8 µM
- CC50 [5, 15]: 30.8 µM
- CC50 [5, 16]: 15.8 to 45.7 µM
- TGI, panel MG_MID ([5]; Prostate Cancer subpanel): 10.34 µM
- TGI, values range inside panel ([5]; Prostate Cancer subpanel): 4.46 to 16.21 µM
- TGI (BT-549; BT-549, Breast Cancer): 8.51 µM
- GI50 (BT-549; Homo sapiens, BT-549): 2.34 µM
- CC50 (BT-549; Homo sapiens, BT-549, read-out: LC50): 35.5 µM
- GI50 (OVCAR-4; Homo sapiens, OVCAR-4): 8.91 µM
- CC50 (OVCAR-4; Homo sapiens, OVCAR-4, read-out: LC50): 97.7 µM
- TGI (OVCAR-4; OVCAR-4, Ovarian Cancer): 30.90 µM
- GI50 (NCI-H460 [6]; Homo sapiens, NCI-H460): 11.5 µM
- CC50 (NCI-H460 [6]; Homo sapiens, NCI-H460, read-out: LC50): 49 µM
- TGI (NCI-H460 [6]; NCI-H460, NSCLC): 23.44 µM
- GI50 [7, 13]: 6.98 µM
- GI50 [7, 14]: 2.29 to 15.5 µM
- CC50 [7, 15]: 44 µM
- CC50 [7, 16]: 31.6 to 60.2 µM
- TGI, panel MG_MID ([7]; NSCLC subpanel): 18.22 µM
- TGI, values range inside panel ([7]; NSCLC subpanel): 9.99 to 30.90 µM

Compound: Ethyl(Z)-4-(3-(4-chloro-2-((6-oxothiazolo[3,2-b][1,2,4]triazol-5(6H)-ylidene)methyl)phenyl)propanamido)benzoate [Compound 2i]
- GI50 (HCC-2998 [1]; HCC-2998, Colon cancer): 16.6 µM
- TGI (HCC-2998 [1]; HCC-2998, Colon cancer): 33.11 µM
- GI50 (NCI-H226): 17 µM
- LC50 (50% lethal concentration) (NCI-H226): 67.6 µM
- TGI (NCI-H226): 33.11 µM
- GI50 (MDA-MB-231/ATCC [2]; MDA-MB-231/ATCC, Breast Cancer): 12.3 µM
- TGI (MDA-MB-231/ATCC [2]; MDA-MB-231/ATCC, Breast Cancer): 26.91 µM
- GI50 (SNB-75 [3]; SNB-75, CNS Cancer): 13.2 µM
- TGI (SNB-75 [3]; SNB-75, CNS Cancer): 44.66 µM
- CC50 (MALME-3M): 53.7 µM
- GI50 (SN12C; Renal Cancer): 12.6 µM
- TGI (SN12C; Renal Cancer): 25.11 µM
- GI50 (HS 578T; HS 578T, Breast Cancer): 3.54 µM
- TGI (HS 578T; HS 578T, Breast Cancer): 19.49 µM
- CC50 (HCT-15): 55 µM
- CC50 (NCI-H460 [8]): 56.2 µM
- GI50 (A549/ATCC): 19.5 µM
- TGI (A549/ATCC): 39.81 µM
- CC50 (A549/ATCC): 79.4 µM
- GI50 (NCI/ADR-RES; Breast Cancer): 21.9 µM
- TGI (NCI/ADR-RES; Breast Cancer): 67.60 µM
- CC50 (SNB-75 [9]): > 100 µM
- GI50 (DU-145; DU-145, Prostate Cancer): 3.98 µM
- TGI (DU-145; DU-145, Prostate Cancer): 16.21 µM
- CC50 (KM12): 55 µM
- TGI, panel MG_MID (CNS Cancer cell lines; CNS Cancer subpanel): 27.42 µM
- TGI, values range inside panel (CNS Cancer cell lines; CNS Cancer subpanel): 19.05 to 44.66 µM
- GI50 (CNS Cancer cell lines; read-out: GI50, panel MG_MID, CNS Cancer subpanel): 9.85 µM
- GI50 (CNS Cancer cell lines; read-out: GI50, values range inside panel, CNS Cancer subpanel): 6.02 to 13.2 µM
- IC50 [4]: 24.4 µM
- GI50 (UACC-257; UACC-257, Melanoma): 10.5 µM
- TGI (UACC-257; UACC-257, Melanoma): 25.70 µM
- CC50 (EKVX): 50.1 µM
- GI50 (SW-620; SW-620, Colon cancer): 9.99 µM
- TGI (SW-620; SW-620, Colon cancer): 21.37 µM
- TGI, panel MG_MID ([5]; Prostate Cancer subpanel): 27.11 µM
- TGI, values range inside panel ([5]; Prostate Cancer subpanel): 16.21 to 38.01 µM
- GI50 ([5]; read-out: GI50, panel MG_MID, Prostate Cancer subpanel): 7.6 µM
- GI50 ([5]; read-out: GI50, values range inside panel, Prostate Cancer subpanel): 3.98 to 11.2 µM
- GI50 (BT-549; BT-549, Breast Cancer): 3.8 µM
- TGI (BT-549; BT-549, Breast Cancer): 15.84 µM
- GI50 (OVCAR-4; OVCAR-4, Ovarian Cancer): 12.9 µM
- TGI (OVCAR-4; OVCAR-4, Ovarian Cancer): 38.90 µM
- GI50 (NCI-H460 [6]; NCI-H460, NSCLC): 13.5 µM
- TGI (NCI-H460 [6]; NCI-H460, NSCLC): 27.54 µM
- CC50 (HCC-2998 [10]): 66.1 µM
- CC50 [11]: 63.1 µM
- TGI, panel MG_MID ([7]; NSCLC subpanel): 30.03 µM
- TGI, values range inside panel ([7]; NSCLC subpanel): 25.70 to 39.81 µM
- GI50 ([7]; read-out: GI50, panel MG_MID, NSCLC subpanel): 14.1 µM
- GI50 ([7]; read-out: GI50, values range inside panel, NSCLC subpanel): 10.2 to 19.5 µM
- CC50 (LOX IMVI): 42.6 µM
- CC50 (786-0): 51.3 µM
- CC50 (MCF7): 50.1 µM
- CC50 (MDA-MB-231/ATCC [12]): > 100 µM
